For four molecules, TGI results are on record in PubChem BioAssay (NCI).

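Growth conditions: 96-well plates. Treatment: test compound, 48 hours, 5 concentrations. Analysis: linear interpolation between bracketing concentrations; unreached endpoints set to highest concentration. At the TGI there is no net growth.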

Test systems include SK-MEL-5 melanoma; XF 498 CNS; HOP-62 NSCLC; SK-MEL-2 melanoma; EKVX NSCLC; UO-31 renal; HL-60(TB) leukemia; A549 NSCLC; LOX IMVI melanoma; SNB-75 CNS.
What all share (test): inhibition of tumour cell growth, NCI panel, 48 h

Regarding `COc1ccc2oc3cccc(NCCN(C)C)c3c(=O)c2c1`, the TGI was found to be 30.9 µM with SK-MEL-5 melanoma; 28 µM in the experiment with XF 498 CNS; 29.2 µM in the experiment with HOP-62 NSCLC; 30.2 µM with SK-MEL-2 melanoma; 29.2 µM with EKVX NSCLC; 21.4 µM with UO-31 renal. The TGI in the experiment with HL-60(TB) leukemia turned out to be 27.6 µM; in the experiment on A549 NSCLC it was 28.2 µM; with LOX IMVI melanoma, 22.7 µM; with SNB-75 CNS, 31 µM.
Consider `COc1ccc(O)c(C#N)c1C#N`, for which the TGI in the experiment on SK-MEL-5 melanoma, in the experiment with XF 498 CNS, in the experiment on HOP-62 NSCLC, in the experiment on SK-MEL-2 melanoma, in the experiment with EKVX NSCLC and with UO-31 renal was over 100 µM in each case. The TGI in the experiment on HL-60(TB) leukemia, in the experiment on A549 NSCLC, in the experiment with LOX IMVI melanoma and with SNB-75 CNS was over 100 µM each time.
For `O=c1cc(-c2ccccc2)c2cc3c(=O)ccoc3cc2o1`, the TGI in the experiment with SK-MEL-5 melanoma, in the experiment on XF 498 CNS, in the experiment with HOP-62 NSCLC, in the experiment with SK-MEL-2 melanoma, with EKVX NSCLC and with UO-31 renal was over 100 µM in each case. Moreover, the TGI with HL-60(TB) leukemia is over 100 µM; with A549 NSCLC, over 100 µM; in the experiment on LOX IMVI melanoma, over 100 µM; with SNB-75 CNS, 90.3 µM.
Consider `COc1ccc(NC(=O)c2cc(OC)c(OC)c(OC)c2)cc1`, for which the TGI was over 80.6 µM in the experiment with SK-MEL-5 melanoma; over 100 µM in the experiment on XF 498 CNS; 99.7 µM with HOP-62 NSCLC; 65.2 µM in the experiment with SK-MEL-2 melanoma; over 100 µM in the experiment on EKVX NSCLC; over 100 µM in the experiment with UO-31 renal. Besides, the TGI was 68 µM in the experiment with HL-60(TB) leukemia, over 100 µM in the experiment with A549 NSCLC, over 100 µM with LOX IMVI melanoma and over 100 µM in the experiment on SNB-75 CNS.
